Here are results for 14 compounds from US20180153830A1, “SELECTIVE INHIBITORS OF UNDIFFERENTIATED CELLS” (Yissum Research Development Company of the Hebrew …, priority 2012, published 2018).

The term EC50 denotes the concentration that produces a half-maximal response. Low values mean an effect from little substance, high ones a need for much substance. The inhibition is the relative decrease from the control value, in per cent.

What all share (assay type): cell-based
Experiment [1] deals with BJ-fibroblasts. In words: CellTiter-Glo counter-screen, BJ-fibroblasts. The conditions noted are these: Homo sapiens; for EC50: 24 hours, differentiated cells. How it is done: The cervical carcinoma cell line HeLa, teratocarcinoma cell line NTERA-2, and immortalized BJ fibroblast cell line, were cultured in DMEM supplemented with 10% FBS, penicillin (50 U/ml) and streptomycin (50 μg/ml).
(§1) 696 confirmed hits from the confirmation screen were tested for profiling in a panel of 13 different cell types, using the same screening protocol described above (except in the case of embryonic stem cell-derived neural stem cells (NSCs) and mesenchymal stem cells (MSCs), for which the protocol is described below). As discussed below, compounds were tested either in dose-dependent multiple concentration manner or in single concentration manner. CSES2 and CSES2-SO2/3 cell lines and the early endodermal progenitors derived from this cell line (CSES2-SO2/3-differentiated) were screened at 8 concentrations ranging from 50 μM to 23 nM with 1:3 serial dilution steps. BJ-iPS28 cell line and the BJ fibroblasts from which it was derived were screened at 6 concentrations ranging from 50 μM to 200 nM with 1:3 serial dilution steps. Cardiomyocytes were screened in one concentration of 20 μM. HeLa and NTERA-2 cell lines were screened in duplicates of 20 μM. Kelly and Huh-7 were screened in triplicates of 20 μM. Hepatocytes were screened in duplicates of 20 μM in the original 96-well plates in which the cells arrived (40,000 cells per well, in 160 μl medium, the volumes of all reagents involved were adjusted accordingly). MSCs and NSCs were screened in duplicates of 12.5 μM.
(§2) In order to identify highly-selective cytotoxic inhibitors of hPSCs, the 696 cytotoxic inhibitors of hPSCs identified as described in Example 1 were counter-screened as described in the Materials and Methods section against other cell types, representative of all germ layers and developmental stages. Importantly, many of these cell types were differentiated from human ES or iPS cells. The screened cell types included ES-derived neural stem cells (NSCs), ES-derived mesenchymal stem cells (MSCs), ES-derived endodermal progenitor cells, ES-derived hepatocytes, iPS-derived cardiomyocytes, iPS-derived fibroblasts of origin (BJ fibroblasts), and three cancer cell lines: neuroblastoma (Kelly), cervical cancer (HeLa) and hepatocarcinoma (Huh7). The cell types and their relationship to stem cells are depicted schematically in FIG. 14.
In addition, the identified compounds were screened at 6 concentrations using the BJ-fibroblasts from which the iPS line BJ-iPS28 had been derived, and reliable EC50 values were thereby calculated for both the iPS cells and for their somatic cells of origin.
A general note: Cellular ATP, detected with luciferase, serves as a proxy for viable cell number.

Experiment [2] has as its system CSES2-SO2/3 ES-derived endodermal progenitors. In words: CellTiter-Glo counter-screen, endodermal progenitors. As to conditions: Homo sapiens; for EC50: 24 hours, differentiated cells. How it is done:
CSES2-SO2/3 embryonic stem cells were differentiated to endodermal progenitors using an established protocol [Duan et al. Stem Cells 28:674-686 (2010)]. Undifferentiated cells were seeded at a density of 10,000 cells/cm^2 on MatrigelT™-coated plates, with mTeSR1 medium. The next day (day 1), medium was replaced to serum-free RPMI-1640, supplemented with 2 mM glutamine, 100 ng/ml Activin A 60 μg/ml of G418 geneticin sulfate and 0.3 μg/ml of puromycin. From day 3 to day 8, the same medium was also supplemented with 1×B27 supplement (Invitrogen) and 0.5 mM sodium butyrate. The cellular identity of the cells as endodermal progenitors was verified by quantifying the percentage of green SOX17+ cells, and the percentage of CXCR4+ cells, using a Guava® EasyCyte™ Plus flow cytometry system (Millipore). Further validation was obtained by fluorescence-staining of the cells with an antibody against the early endodermal surface marker CXCR4 (CXCR4-PE antibody, 1:25; BD Biosciences). The percentage of CXCR4+ cells was also quantified using the Guava® EasyCyte™ Plus flow cytometry system.
as §1, with “CSES2 and CSES2-SO2/3 cell lines and the early endodermal progenitors derived from this cell line (CSES2-SO2/3-differentiated) were screened at 8 concentrations ranging from 50 μM to 23 nM with 1:3 serial dilution steps.” left out
as §2
The identified compounds were screened at 8 concentrations using both the undifferentiated red cells and the differentiated green cells, and reliable EC50 values were thereby calculated for the genetically identical differentiated and undifferentiated cells.

For experiment [3], the system named is CSES2-SO2/3 embryonic stem cells. In words: CellTiter-Glo luminescent cell viability screen, CSES2-SO2/3. As to conditions: Homo sapiens; for EC50: 24 h; for inhibition at 20 µM: pluripotent stem cells. How it is done: 5,000 CSES2 cells were plated in 50 μl per well of mTeSR1 medium into black 384-well clear-bottom plates (Falcon BD) pre-coated with Matrigel™ using WellMate cell dispenser (Matrix, Hudson, N.H.). 24 hours after plating, medium was replaced with 25 μl of fresh medium and 25 μl of 40 μM compound medium solutions in 1% DMSO from the intermediate compound dilution plates. The plates were incubated at 37° C., in a 5% CO2 atmosphere, for the entire duration of the screen, apart from the time required for liquid handling. Cell viability was determined 24 hours after compound treatment using CellTiter-Glo® luminescent cell viability assay kits. 50 μl of CellTiter-Glo® reagent was added to each well of the assay plates and fully mixed. After incubation at room temperature for 15 minutes, 25 μl of liquid was transferred from each well into a white opaque-bottom 384-well plate (PerkinElmer), and luminescence was measured using an EnVision® plate reader (PerkinElmer). 16 neutral control wells (0.5% DMSO) and 8 positive control wells (5 μM amsacrine hydrochloride were used to normalize the compound effect. All liquid transfer steps were handled with a Biomek® FXP Laboratory Automation Workstation (Beckman Coulter, Fullerton, Calif.) and Muitidrop Combi liquid dispenser (Thermo Fisher, Waltham, Mass.). An Assay Analyzer (Genedata, Basel, Switzerland) was used for data pattern correction and calculation. The Spotfire software (Spotfire, Somerville, Mass.) was used for data illustration.
The compounds identified as hits from the primary screen were retested at a concentration of 20 μM against three pluripotent stem cell lines (CSES2, H9 and CSES2-SO2/3) for confirmation screens.
as §1
The raw intensity data for each well were background-corrected by subtraction of the median intensities across all positive control wells on the same plate, and used to calculate the inhibitory effect of each compound per cell line. A Genedata Assay Analyzer and Condoseo were used for data pattern correction, calculation and IC50 curve fitting. A Z′ factor was determined for each plate.

The subject of experiment [4] is neuroblastoma (Kelly) cells. In words: CellTiter-Glo counter-screen, Kelly. As to conditions: Homo sapiens, cancer cells. As for the experimental part: The neuroblastoma cell line Kelly was cultured in RPMI-1640 medium, supplemented with 15% fetal bovine serum (FBS), penicillin (50 U/ml) and streptomycin (50 μg/ml).
as §1, §2

`O=C(NNc1ccccc1)c1ccncc1` [PluriSIn #1, isonicotinic acid N′-phenylhydrazide]: the concentration for a half-maximal effect (EC50) in experiment [1] was greater than 50 µM; in experiment [2] it was greater than 50 µM; in experiment [3] it was 3.91 µM. Moreover, the inhibition at 20 µM in experiment [1] was -8.8%; in experiment [2], 6.5%; in experiment [3], 90.8%; in experiment [4], -2%.

Regarding `O=C(Nc1ccccc1)n1cc(F)c(=O)[nH]c1=O` [PluriSIn #2], the EC50 in experiment [1] was greater than 50 µM; in experiment [2], greater than 50 µM; in experiment [3], 12.4 µM. In addition, the inhibition at 20 µM in experiment [1] was -8.3%; in experiment [2], -8.3%; in experiment [3], 54.3%; in experiment [4], 3%.

Turning to `Nc1cc(N)cc(COc2ccc(-c3ccccc3)cc2)c1` [PluriSIn #3], the values for the EC50 in experiment [1], in experiment [2] and in experiment [3] were greater than 50 µM, greater than 50 µM and 2.79 µM, respectively. Besides, the inhibition at 20 µM in experiment [1] is -25.4%; in experiment [2] it was -9.2%; in experiment [3], 97.4%; in experiment [4], 2.3%.

`O=C(NCCc1ccc(O)cc1)c1ccc(N2CCCCC2)cc1` [PluriSIn #4]: the EC50 in experiment [1] was greater than 50 µM; in experiment [2] it was greater than 50 µM; in experiment [3] it was 4.71 µM. Also, the inhibition at 20 µM in experiment [1] was -22.9%; in experiment [2] it was -1.1%; in experiment [3] it was 74.5%; in experiment [4], 9.4%.

As for `O=S(=O)(NNc1ccccc1)c1ccc2ccccc2c1` [PluriSIn #5], the EC50 is greater than 50 µM in experiment [1], greater than 50 µM in experiment [2] and 3.2 µM in experiment [3]. The inhibition at 20 µM was -7.5% in experiment [1], 12.9% in experiment [2], 92.3% in experiment [3] and 0.2% in experiment [4].

In the case of `Cc1ccc(NNC(=O)C(O)(c2ccccc2)c2cccs2)cc1` (stereo not shown) [PluriSIn #6, 2-hydroxy-2-(thiophen-2-yl)-2-phenylacetic acid 4-methyl-N′-phenylhydrazide], the results for the EC50 in experiment [1], in experiment [2] and in experiment [3] were greater than 50 µM, greater than 50 µM and 3.75 µM, respectively. Further, the inhibition at 20 µM in experiment [1] is 15.9%; in experiment [2] it was -2.5%; in experiment [3] it was 93.2%; in experiment [4], 1.8%.

Take `CC(=O)Oc1ccc(/C=C/c2ccc3c(c2)CCN3C)cc1` [PluriSIn #7]: the EC50 in experiment [1] is greater than 50 µM; in experiment [2], greater than 50 µM; in experiment [3], 2.74 µM. The inhibition at 20 µM is -9.7% in experiment [1], 24.8% in experiment [2], 95.4% in experiment [3] and 26.7% in experiment [4].

Take `Cc1oc2ccccc2c1/C=N/Nc1ccccc1` [PluriSIn #8]: the values for the EC50 in experiment [1], in experiment [2] and in experiment [3] were greater than 50 µM, greater than 50 µM and 3.69 µM, respectively. The inhibition at 20 µM was -10.3% in experiment [1], 0% in experiment [2], 92.7% in experiment [3] and -1% in experiment [4].

As for `C/C(=N\O)NNc1ccc(Cl)cc1` [PluriSIn #9], the EC50 in experiment [1] is greater than 50 µM; in experiment [2] it was greater than 50 µM; in experiment [3], 4.61 µM. In addition, the inhibition at 20 µM in experiment [1] is -22.7%; in experiment [2] it was 11.9%; in experiment [3], 89.2%; in experiment [4], 6%.

As for `CCCCCC(=O)NNc1ccc(Cl)cc1` [PluriSIn #10], the 50% effective concentration (EC50) in experiment [1] was greater than 50 µM; in experiment [2], greater than 50 µM; in experiment [3], 2.49 µM. The inhibition at 20 µM in experiment [1] is -20.1%; in experiment [2], 33.8%; in experiment [3], 95.2%; in experiment [4], 5.7%.

For `CCOC(=O)CN1CC(=O)/C(=C\NNc2ccccc2)C1=O` [PluriSIn #11], the concentration giving a half-maximal response (EC50) in experiment [1] is greater than 50 µM; in experiment [2], greater than 50 µM; in experiment [3], 3.62 µM. In addition, the inhibition at 20 µM in experiment [1] is -19.3%; in experiment [2] it was 4.3%; in experiment [3], 92.5%; in experiment [4] it was 3.3%.

For the compound `CCN(CC)C(=O)C(=O)c1c(-c2ccccc2)[nH]c2c1sc1ccccc12` [PluriSIn #12], the figures for the EC50 in experiment [1], in experiment [2] and in experiment [3] were greater than 50 µM, greater than 50 µM and 6.04 µM, respectively. Moreover, the inhibition at 20 µM in experiment [1] is -8.4%; in experiment [3], 92.9%; in experiment [4], -0.9%.

On to `O=C1C=CC=C1/C=C/C(=N\Nc1ccccc1)c1ccccc1` [PluriSIn #13], for which the EC50 is greater than 50 µM in experiment [1], greater than 50 µM in experiment [2] and 3.45 µM in experiment [3]. Moreover, the inhibition at 20 µM in experiment [1] was -15.4%; in experiment [2], 15.8%; in experiment [3] it was 94.6%; in experiment [4], 17.5%.

`O=C(NN(C(=O)c1ccccc1)c1ccccc1)c1ccc(Cl)cc1` [PluriSIn #14]: the concentration for a half-maximal effect (EC50) in experiment [1] was greater than 50 µM; in experiment [2], greater than 50 µM; in experiment [3] it was 5.51 µM. Besides, the inhibition at 20 µM in experiment [1] was -18.6%; in experiment [2] it was 18.8%; in experiment [3] it was 90.1%; in experiment [4], 0%.
